Where a name gives a salt, the structure may show the parent alone.
Columns and labels:
Human GlyT1c = target: T1, Human GlyT1c (Homo sapiens, UniProt P48067); experiment: Glycine uptake in recombinant hGlyT1 expressing cells; assay type: cell-based; conditions: hGlyT1c_5_CHO cells; [3H]-glycine uptake, 60-120 min
T1 construct: expressed in transfected cells; host or cells: CHO (hGlyT1c_5_CHO clone)
T1 sequence (P48067 1-706): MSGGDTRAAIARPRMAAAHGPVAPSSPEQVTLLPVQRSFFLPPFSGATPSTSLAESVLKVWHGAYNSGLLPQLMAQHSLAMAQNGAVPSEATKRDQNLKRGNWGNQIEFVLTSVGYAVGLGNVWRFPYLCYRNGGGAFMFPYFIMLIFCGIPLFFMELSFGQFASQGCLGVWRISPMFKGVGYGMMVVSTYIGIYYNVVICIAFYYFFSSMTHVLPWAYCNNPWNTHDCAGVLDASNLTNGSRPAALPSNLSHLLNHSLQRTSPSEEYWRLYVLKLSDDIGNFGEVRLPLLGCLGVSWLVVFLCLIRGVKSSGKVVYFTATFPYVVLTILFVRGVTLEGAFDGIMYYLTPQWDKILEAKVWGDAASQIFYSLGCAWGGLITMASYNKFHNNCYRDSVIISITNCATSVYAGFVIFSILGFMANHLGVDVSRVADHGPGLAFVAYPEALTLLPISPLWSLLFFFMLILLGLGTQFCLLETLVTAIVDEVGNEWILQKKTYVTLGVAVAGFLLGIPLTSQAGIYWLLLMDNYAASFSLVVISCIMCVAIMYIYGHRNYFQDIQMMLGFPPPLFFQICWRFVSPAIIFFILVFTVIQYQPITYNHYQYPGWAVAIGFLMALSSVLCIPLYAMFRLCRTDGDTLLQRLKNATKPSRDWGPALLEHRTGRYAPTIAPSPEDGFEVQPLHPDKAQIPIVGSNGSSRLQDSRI
Procedure: 1. Glycine Uptake in Recombinant hGlyT1 Expressing Cells:
Human GlyT1c expressing recombinant hGlyT1c—5_CHO cells were plated at 20,000 cells per well in 96 well Cytostar-T scintillation microplates (Amersham Biosciences) and cultured to sub-confluency for 24 h. For glycine uptake assays the culture medium was aspirated and the cells were washed once with 100 μl HBSS (Gibco BRL, #14025-050) with 5 mM L-Alanine (Merck #1007). 80 μl HBSS buffer were added, followed by 10 μl inhibitor or vehicle (10% DMSO) and 10 μl [^3H]-glycine (TRK71, Amersham Biosciences) to a final concentration of […] for initiation of glycine uptake. The plates were placed in a Wallac Microbeta (PerkinElmer) and continuously counted by solid phase scintillation spectrometry during up to 3 hours. Nonspecific uptake was determined in the presence of 10 μM Org24598. IC50 calculations were made by four-parametric logistic nonlinear regression analysis (GraphPad Prism) using determinations within the range of linear increase of [^3H]-glycine incorporation between 60 and 120 min.

human GlyT1c transporter = target: T2, human GlyT1c transporter (Homo sapiens, UniProt P48067); experiment: [3H]-(R)-NPTS radioligand binding assay using recombinant hGlyT1 expressing cell membranes; conditions: 0.5 nM [3H]-(R)-NPTS, apparent Ki via Cheng-Prusoff, read-out: [3H]-(R)-NPTS bindung Ki
T2 construct: expressed in transfected cells; host or cells: recombinant hGlyT1-expressing cells
T2 sequence (P48067 1-706): T1 sequence (P48067 1-706)
Procedure: 2. [^3H]-(R)-NPTS Radioligand Binding Assays using Recombinant hGlyT1 Expressing Cell Membranes:
Radioligand binding to human GlyT1c transporter-expressing membranes was measured in duplicate in a total volume of 200 μl in 96-well plates. To 100 μl of membrane suspension (yielding a final membrane protein concentration of 50 μg/ml) in assay buffer (120 mM NaCl, 2 mM KCl, 10 mM Hepes, 1 mM MgCl2, 1 mM CaCl2, pH 7.5) […] of [^3H]-(R)NPTS (0.5 nM final) were added in assay buffer. For competition experiments 10 μl of buffer or unlabeled compound solution obtained from dilution series of test compounds in DMSO followed. An intermediate 1:10 dilution in assay buffer yielded a final DMSO concentration of 1%. Non-specific binding was determined in the presence of 10 μM Org24598 (or its racemate Org24461) for [^3H]-(R)-NPTS. After incubation at room temperature for 1 h, the incubation mixture was harvested (Tomtec Mach III U Harvester) through 96-well GF/B filter plates (PerkinElmer), presoaked for 1 h with 40 μl per well of 0.1% polyethylene-imine (PEI). After washing twice with ice-cold 50 mM Tris-HCl pH 7.4 buffer, drying and addition of 35 μl scintillator (BetaplateScint, PerkinElmer) per well followed. The radioactivity was determined by liquid scintillation spectrometry in a MicroBeta (PerkinElmer) plate counter.
Data analysis: For binding of [^3H]-(R)-NPTS to cell membranes, the calculation of Kd and Bmax values from the saturation binding assays and the IC50 values from the displacement binding was performed by iterative non-linear regression analysis adapted from the ‘Ligand’ program (Munson and Rodbard, 1980). Radioligand displacement curves in absence or in presence of increasing concentrations of tested compounds were fitted using a one-site fit and the apparent Ki values were calculated from the IC50 values using the Cheng-Prusoff equation (Cheng and Prusoff 1973).

Row | Structure (SMILES) | IC50 (Human GlyT1c) [nM] | Ki (human GlyT1c transporter) [nM]
1 | Cc1cc(NCc2ccc(Cl)c(Cl)c2)c2cccc(S(C)(=O)=O)c2n1 [Example 93, (3,4-Dichlorobenzyl)-(8-methanesulfonyl-2-methylquinolin-4-yl)-amine] | ≤ 10000 | ≤ 1000
2 | COc1cccc2c(N[C@@H](CN(C)C)c3ccc(Cl)cc3)cc(C)nc12 [Example 77, (R)-1-(4-Chlorphenyl)-N*1*-(8-methoxy-2-methylquinoline-4-yl)-N*2*,N*2*-dimethylethane-1,2-diamin] | ≤ 10000 | ≤ 1000
3 | Cc1cc(NCc2ccc(Cl)c(Cl)c2)c2cccc(NS(=O)(=O)c3ccccc3)c2n1 [Example 8, N-[4-(3,4-Dichlorobenzylamino)-2-methylquinolin-8-yl]-phenylsulfonamide] | ≤ 10000 | ≤ 1000
4 | Cc1cc(NCc2ccc(Cl)c(Cl)c2)c2cccc(Oc3ccccn3)c2n1 [Example 55, (3,4-Dichlorobenzyl)-[2-methyl-8-(pyridin-2-yloxy)-quinolin-4-yl]-amine] | ≤ 10000 | ≤ 1000
5 | Cc1cc(NCc2ccc(Cl)c(Cl)c2)c2cccc(Oc3ccccc3)c2n1 [Example 44, (3,4-Dichlorobenzyl)-(2-methyl-8-phenoxyquinolin-4-yl)-amine] | ≤ 1000 | ≤ 1000
6 | Cc1cc(NCc2ccc(Cl)c(Cl)c2)c2cccc(OCCNC(=O)C(C)C)c2n1 [Example 26, N-{2-[4-(3,4-Dichlorobenzylamino)-2-methylquinolin-8-yloxy]-ethyl}-isobutyramide] | ≤ 1000 | ≤ 1000
7 | Cc1cc(NCc2ccc(Cl)c(Cl)c2)c2cccc(NS(C)(=O)=O)c2n1 [Example 12, N-[4-(3,4-Dichlorobenzylamino)-2-methylquinolin-8-yl]-methanesulfonamide] | ≤ 10000 | ≤ 1000
8 | Cc1cc(NCc2ccc(Cl)c(Cl)c2)c2cccc(Cl)c2n1 [Example 81, (8-Chlor-2-methylquinolin-4-yl)-(3,4-dichlorobenzyl)-amine] | ≤ 1000 | ≤ 100
9 | C=CCN1CCCC[C@H]1[C@@H](Nc1cc(C)nc2c(OC)cccc12)c1ccccc1 [Example 53, [(S)—((S)-1-Allylpiperidin-2-yl)-phenylmethyl]-(8-methoxy-2-methylquinolin-4-yl)-amine] | ≤ 100000 | ≤ 10000
10 | CC(=O)Nc1cccc2c(NCc3ccc(Cl)c(Cl)c3)cc(C)nc12 [Example 13, N-[4-(3,4-Dichlorobenzylamino)-2-methylquinolin-8-yl]-acetamide] | ≤ 1000 | ≤ 1000
11 | Cc1cc(NCc2ccc(Cl)c(Cl)c2)c2ccccc2n1 [Example 89, (3,4-Dichlorobenzyl)-(2-methylquinolin-4-yl)-amine] | ≤ 1000 | ≤ 100
12 | Cc1cc(NCc2ccc(Cl)c(Cl)c2)c2cccc(S(=O)(=O)N(C)C)c2n1 [Example 1, 4-(3,4-Dichlorobenzylamino)-2-methylquinoline-8-sulfonic dimethylamide] | ≤ 10000 | ≤ 1000
13 | Cc1cc(NCc2ccc(F)c(F)c2)c2cccc(C)c2n1 [Example 85, (3,4-Difluoro-benzyl)-(2,8-dimethyl-quinolin-4-yl)-amine] | ≤ 1000 | ≤ 1000
14 | COc1cccc2c(NC(CNCc3ccccc3)c3ccccc3)cc(C)nc12 (centres unmarked) [Example 78, N*2*-Benzyl-N*1*-(8-methoxy-2-methylquinolin-4-yl)-1-phenylethane-1,2-diamine] | ≤ 10000 | ≤ 1000
15 | COc1cccc2c(NC(c3ccc(Cl)cc3)c3nccn3C)cc(C)nc12 (centres unmarked) [Example 70, [(4-Chlorophenyl)-(1-methyl-1H-imidazol-2-yl)-methyl]-(8-methoxy-2-methylquinoline-4-yl)amine] | ≤ 100000 | ≤ 10000
16 | Cc1cc(NCc2ccc(Cl)c(Cl)c2)c2cccc(NC(=O)C(C)C)c2n1 [Example 14, N-[4-(3,4-Dichlorobenzylamino)-2-methylquinolin-8-yl]-isobutyramide] | ≤ 10000 | ≤ 10000
17 | Cc1cc(NCc2ccc(Cl)c(Cl)c2)c2cccc(N(C)C)c2n1 [Example 16, N*4*-(3,4-Dichlorobenzyl)-N*8*-dimethyl-2-methylquinolin-4,8-diamine hydrochloride] | ≤ 1000 | ≤ 100

Continued, values first:

Row | IC50 (Human GlyT1c) [nM] | Ki (human GlyT1c transporter) [nM] | Structure (SMILES)
18 | ≤ 1000 | ≤ 100 | Cc1cc(NCc2ccc(Cl)c(Cl)c2)c2cccc(OCCn3cccn3)c2n1 [Example 47, (3,4-Dichlorobenzyl)-[2-methyl-8-(2-pyrazol-1-yl-ethoxy)-quinolin-4-yl]-amine hydrochloride]
19 | ≤ 100 | ≤ 100 | COCCOc1cccc2c(NCc3ccc(Cl)c(Cl)c3)cc(C)nc12 [Example 49, (3,4-Dichlorobenzyl)-[8-(2-methoxyethoxy)-2-methylquinolin-4-yl]-amine]
20 | ≤ 1000 | ≤ 1000 | COc1cccc2c(NCc3ccc(Cl)cc3)cc(C)nc12 [Example 84, (4-Chlorobenzyl)-(2-methyl-8-methoxyquinolin-4-yl)amine]
21 | ≤ 1000 | ≤ 1000 | CSc1cccc2c(NCc3ccc(F)c(F)c3)cc(C)nc12 [Example 86, (3,4-Difluorobenzyl)-(2-methyl-8-methylsulfanylquinolin-4-yl)-amine]
22 | ≤ 1000 | ≤ 1000 | COc1cccc2c(NCc3ccc(C(F)(F)F)c(Cl)c3)cc(C)nc12 [Example 80, (3-Chloro-4-trifluoromethylbenzyl)-(8-methoxy-2-methylquinolin-4-yl)-amine]
23 | ≤ 1000 | ≤ 100 | Cc1cc(NCc2ccc(Cl)c(Cl)c2)c2cccc(OCCNS(=O)(=O)c3ccc4ccccc4c3)c2n1 [Example 28, Naphthyl-2-sulfonic {2-[4-(3,4-dichlorobenzylamino)-2-methylquinolin-8-yloxy]-ethyl}-amide]
24 | ≤ 1000 | ≤ 1000 | Cc1cc(NCc2ccc(Cl)c(Cl)c2)c2cccc([S+](C)[O-])c2n1 (centres unmarked) [Example 92, (3,4-Dichlorobenzyl)-(8-methanesulfinyl-2-methylquinolin-4-yl)-amine]
25 | ≤ 1000 | ≤ 1000 | Cc1cc(NCc2ccc(Cl)c(Cl)c2)c2cccc(F)c2n1 [Example 82, (3,4-Dichlorobenzyl)-(8-fluoro-2-methylquinolin-4-yl)-amine]
26 | ≤ 100 | ≤ 10 | Cc1cc(NCc2ccc(Cl)c(Cl)c2)c2cccc(OCCNS(C)(=O)=O)c2n1 [Example 21]
27 | ≤ 100 | ≤ 100 | Cc1cc(NCc2ccc(Cl)c(Cl)c2)c2cccc(C)c2n1 [Example 87, (3,4-Dichlorobenzyl)-(2-methyl-8-methylquinolin-4-yl)-amine]
28 | ≤ 100 | ≤ 1000 | Cc1cc(NCc2ccc(Cl)c(Cl)c2)c2cccc(OC(F)(F)F)c2n1 [Example 56, (3,4-Dichloro-benzyl)-(2-methyl-8-trifluoromethoxyquinolin-4-yl)-amine]

Source: patent US8420670B2 (Abbott Laboratories, priority 2007, dated 2013)
